According to article PMC6591177, “Small Molecule IL-36γ Antagonist as a Novel Therapeutic Approach for Plaque Psoriasis” (Scientific Reports, 2019):
Values belong to the molecule of their own block, whether it stands above or below them.

How the values were obtained:
[1] = system: IL-36γ evoked CXCL1 release from Mouse NIH-3T3 cells; assay: IL-36γ evoked CXCL1 release, mouse NIH-3T3 cells; format: cell-based; details: human IL-36γ evoked CXCL1 release, ± S.D.
Description: (§1) The immortalized human keratinocyte cell line HaCaT and mouse fibroblast NIH-3T3 cell line were maintained in culture in DMEM with 10% fetal bovine serum and 1% penicillin/streptomycin added (Sigma). Cells were seeded in 96-well tissue culture plates (Corning) at 25,000 cells per well and allowed to adhere and recover overnight at 37 °C in an incubator. Cells were rinsed with PBS (Sigma) and treated with cytokines diluted in 200 μL/well of the medium (DMEM with 0.5% FBS and 1% penicillin/streptomycin) as indicated. In inhibition mode, the agonist concentration used was at the EC80 for chemokine production and the cells were pre-treated with inhibitors for 30 min prior to adding the agonist. After 24 h of treatment, supernatants were collected and IL-8 and CXCL1[28] levels were assessed using a custom immunoassay (Meso Scale Discovery). EC50/IC50 values were estimated from a four-parameter logistic fit using Prism software (GraphPad).

[2] = system: human IL-36γ evoked CXCL1 release from Human HaCaT cells; assay: human IL-36γ evoked CXCL1 release, human HaCaT cells; format: cell-based; details: ± S.D.
Description: as §1

HaCaT cells [3] = assay: Cell viability (Cell Titer-Glo) counter screen; format: cell-based, human
Description: The IL-8 release assays were miniaturized for HTS hit follow-up. Frozen aliquots of HaCaT cells were thawed, added to complete media, mixed, spun down, resuspended in fresh media, and dispensed using the Multidrop384 into black, clear-bottom 384 well plates at a final density of 4000 cells/well. After a 24 h recovery period at 37 °C/5% CO2, the cell plates were rinsed twice with 40 μL/well fresh media. The Biomek FX workstation was then used to add 10 μL/well compounds. Cell plates were then returned to 37 °C for 15 min incubation, followed by the addition of 10 μl/well of IL-36γ (40 ng/ml final). After an additional 5 h of incubation at 37 °C, 5 μl/well of cell supernatant was removed with the Biomek FX and transferred to a 384 well Proxy Plate for IL-8 detection using the HTRF kit from Cisbio. For the IL-1β evoked release of IL-8, the same protocol was followed, but with a final concentration of 1 ng/mL IL-1β and an overnight incubation instead of 5 h. Cell viability was assessed using Cell Titer-Glo (Promega) according to the manufacturers’ instructions.

human IL-36α = biological target: T1, human IL-36α (Homo sapiens, UniProt Q9UHA7); assay: Thermal shift assay / affinity, human IL-36α; format: binding; details: thermal shift assay at 100 μM (Supplementary Fig. 4)
T1 construct: using recombinant truncated proteins
T1 sequence (Q9UHA7 6-158): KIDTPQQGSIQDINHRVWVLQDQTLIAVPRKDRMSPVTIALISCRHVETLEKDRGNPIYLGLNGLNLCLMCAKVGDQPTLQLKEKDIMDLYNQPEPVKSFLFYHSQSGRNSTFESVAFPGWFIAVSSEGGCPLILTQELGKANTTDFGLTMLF
Description: (§2) Thermal shift assays[30] were performed on a Roche LightCycler 480 instrument using Sypro Orange Dye (Invitrogen). Reactions consisted of 0.5–2 µM purified recombinant protein in PBS, pH 7.4, a 1/500 dilution of the stock Sypro Orange reagent, and 100 µM test compounds, resulting in a final DMSO concentration of 1%. The samples were heated from 20 °C to 95 °C at a rate of 0.25 °C per second.

[4] = system: IL-1β evoked IL-8 release from HaCaT cells; assay: IL-1β evoked IL-8 release assay in HaCaT cells; format: cell-based, human
Description: as §1
(§3) The IL-8 release assays were miniaturized for HTS hit follow-up. Frozen aliquots of HaCaT cells were thawed, added to complete media, mixed, spun down, resuspended in fresh media, and dispensed using the Multidrop384 into black, clear-bottom 384 well plates at a final density of 4000 cells/well. […] Cell viability was assessed using Cell Titer-Glo (Promega) according to the manufacturers’ instructions.

human IL-36γ = biological target: T2, human IL-36γ (Homo sapiens, UniProt Q9NZH8); assay: Thermal shift assay, human IL-36γ; format: binding; details: 100 μM compound; read-out: increase of melting temperature of human IL-36γ
T2 construct: His6-SUMO-human IL-36γ (18–169); His6-SUMO (N, cleaved yes); made in house; host or cells: E. coli BL21 (DE3)
T2 sequence (Q9NZH8 18-169): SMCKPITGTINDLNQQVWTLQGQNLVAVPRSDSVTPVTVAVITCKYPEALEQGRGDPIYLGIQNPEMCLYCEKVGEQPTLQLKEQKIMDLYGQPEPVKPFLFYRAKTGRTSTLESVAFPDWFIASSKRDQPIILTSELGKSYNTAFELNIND
Description: as §2

HaCaT cells [5] = assay: mouse IL-36γ induction of CXCL1 release from HaCaT cells; format: cell-based, human; details: agonist mode
Description: as §1

[6] = biological target: T3, human IL-36R/IL-1RAcP extracellular domain (ECD) knob-in-hole Fc (human, UniProt Q9HB29 20-335; Q9NPH3 21-367); assay: AlphaScreen or HTRF; TR-FRET, direct binding: receptor heterodimer 1.5 μg/mL with 6 nM Tb-anti-His antibody, Alexa 488 IL-36γ titrated; 1% BSA in 1X PBS; overnight at 4 °C, read at room temperature; ratio 520 nm/495 nm; details: both partners purified
T3 construct: human IL-36 receptor subunit (IL-36R), extracellular domain; human IL-1RAcP co-receptor subunit, extracellular domain; Both proteins were engineered with an Fc 'knob-in-hole' to force heterodimerisation; also called hIL-36R/IL-1RAcP ECD knob-in-hole Fc; human IL-36R/IL-1RAcP ECD Fc heterodimer; not shown: His tag (from the nickel column and the Tb-anti-His detection)
T3 sequence (looked up) 1: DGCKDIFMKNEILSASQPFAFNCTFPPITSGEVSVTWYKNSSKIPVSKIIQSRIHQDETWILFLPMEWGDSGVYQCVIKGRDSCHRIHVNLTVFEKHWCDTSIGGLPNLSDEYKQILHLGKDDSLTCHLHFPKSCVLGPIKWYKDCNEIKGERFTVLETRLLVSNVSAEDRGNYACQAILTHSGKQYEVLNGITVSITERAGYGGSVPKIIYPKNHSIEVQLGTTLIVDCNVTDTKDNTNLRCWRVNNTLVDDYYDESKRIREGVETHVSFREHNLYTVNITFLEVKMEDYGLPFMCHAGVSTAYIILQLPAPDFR
T3 sequence (looked up) 2: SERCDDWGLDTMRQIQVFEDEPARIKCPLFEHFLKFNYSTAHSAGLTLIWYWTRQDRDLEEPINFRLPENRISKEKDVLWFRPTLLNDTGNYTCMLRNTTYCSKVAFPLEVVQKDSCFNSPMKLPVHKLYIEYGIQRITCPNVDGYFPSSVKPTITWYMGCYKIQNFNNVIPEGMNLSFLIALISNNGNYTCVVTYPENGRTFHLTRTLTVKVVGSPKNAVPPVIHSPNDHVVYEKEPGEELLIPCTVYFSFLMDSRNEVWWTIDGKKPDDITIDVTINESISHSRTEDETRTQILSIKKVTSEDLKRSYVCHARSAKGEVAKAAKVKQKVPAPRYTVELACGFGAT

[7] = system: IL-36γ evoked IL-8 release from HaCaT cells; assay: IL-36γ evoked IL-8 release assay from HaCaT cells; format: cell-based, human; details: agonist mode, n = 4
Description: as §1, §3

IL-36 receptor = biological target: T4, IL-36 receptor (Homo sapiens, UniProt Q9HB29); assay: IL-8 release assay in HaCaT cells
T4 chain: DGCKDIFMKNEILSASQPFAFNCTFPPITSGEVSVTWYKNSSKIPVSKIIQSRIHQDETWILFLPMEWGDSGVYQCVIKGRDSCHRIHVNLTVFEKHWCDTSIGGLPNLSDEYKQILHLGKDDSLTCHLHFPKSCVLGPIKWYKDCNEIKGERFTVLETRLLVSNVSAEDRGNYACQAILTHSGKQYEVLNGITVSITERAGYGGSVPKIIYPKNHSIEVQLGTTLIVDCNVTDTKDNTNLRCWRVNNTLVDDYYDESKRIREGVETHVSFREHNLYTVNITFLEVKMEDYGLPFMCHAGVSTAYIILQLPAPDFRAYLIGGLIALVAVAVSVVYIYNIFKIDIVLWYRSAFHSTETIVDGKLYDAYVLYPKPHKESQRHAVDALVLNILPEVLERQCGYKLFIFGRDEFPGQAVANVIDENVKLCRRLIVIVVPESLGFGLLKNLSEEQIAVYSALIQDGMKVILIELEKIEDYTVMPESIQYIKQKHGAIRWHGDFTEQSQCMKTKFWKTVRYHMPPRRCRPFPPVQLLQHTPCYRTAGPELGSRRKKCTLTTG

[8] = biological target: T3, human IL-36R/IL-1RAcP extracellular …; assay: AlphaScreen or HTRF; TR-FRET, competitive mode: unlabeled human IL-36γ or IL-36Ra titrated against 6 nM Alexa 488 human IL-36γ, receptor heterodimer 1.5 μg/mL, 6 nM Tb-anti-His antibody; Ki by the Cheng-Prusoff equation; details: both partners purified

Molecule: COC(c1ccccc1)(c1ccccc1)C(Oc1nc(C)cc(-c2ccc(C)c(N)c2)n1)C(=O)O (centres unmarked) [Compound A-706]
- Ki [1]: 181 ± 54 nM
- Ki [2]: 121 ± 32 nM
- cellular toxicity (HaCaT cells [3]): no activity in the hIL-1β induced IL-8 release assay or cellular toxicity
- binding / affinity to human IL-36α (human IL-36α): do not bind
- activity in the hIL-1β induced IL-8 release assay [4]: no activity
- ΔTm at 100 µM (human IL-36γ): 5.4 °C

B1: mouse IL-36γ: mouse IL-36γ cytokine (protein, UniProt Q8R460 13-164, looked up)
Interleukin-36 gamma: GRETPDFGEVFDLDQQVWIFRNQALVTVPRSHRVTPVSVTILPCKYPESLEQDKGIAIYLGIQNPDKCLFCKEVNGHPTLLLKEEKILDLYHHPEPMKPFLFYHTRTGGTSTFESVAFPGHYIASSKTGNPIFLTSKKGEYYNINFNLDIKS
- induction of CXCL1 release from HaCaT cells (HaCaT cells [5]): cannot induce CXCL1 release

B3: human IL-36γ: recombinant human IL-36γ (18–169) cytokine, IL-36R agonist (protein)
chain: T2 sequence (Q9NZH8 18-169)
modifications: left off: His6, N-terminal, cleaved | SUMO, N-terminal, cleaved
notes: recombinant human IL-36γ (18–169) cytokine, IL-36R agonist
- EC50 [7]: 0.2 ± 0.1 nM

The next lines start with the values.

- EC50 [6]: 0.3 nM
B2: N-terminal labeled Alexa 488 human IL-36γ (ligand, UniProt Q9NZH8 18-169, looked up)
chain: T2 sequence (Q9NZH8 18-169)
modifications: Alexa Fluor 488 (N-hydroxysuccinimidyl ester); called N-terminal labeled
notes: human IL-36γ, residues 18-169; Same protein as m3, with the dye; also called Alexa-488 labeled hIL-36γ; NHS-AlexaFluor-488 conjugated human IL-36γ; not shown: His6, N-terminal, cleaved; SUMO, N-terminal, cleaved

- Ki (IL-36 receptor): 0.6 nM
- Ki [8]: 2 nM
B4: human IL-36Ra (2–155) (ligand, UniProt Q9UBH0 2-155, looked up)
chain: VLSGALCFRMKDSALKVLYLHNNQLLAGGLHAGKVIKGEEISVVPNRWLDASLSPVILGVQGGSQCLSCGVGQEPTLTLEPVNIMELYLGAKESKSFTFYRRDMGLTSSFESAAYPGWFLCTVPEADQPVRLTQLPENGGWNAPITDFYFQQCD
notes: human IL-36 receptor antagonist (IL-36Ra), residues 2-155; also called hIL-36Ra; recombinant soluble hIL-36Ra; source: E. coli BL21 (DE3), purified (nickel column, ULP1 cleavage, Superdex 75 gel filtration); not shown: His6, N-terminal, cleaved; SUMO, N-terminal, cleaved
